The source of these data is patent US20080286215A1, “Method of Preventing Oral Staining” (priority 2005, published 2008).

Read-outs that look alike come from different tables or passages of the source.

Data set [1] is described as follows: seven-day twice-daily mouthwash swilling, staining of teeth and tongue. It counts as in vivo. To be noted: 0.2% mouthwash swilled twice daily for seven days. As to the method:
FIG. 1 panel B illustrates staining of the teeth caused when contacted over a seven-day period with Chlorhexidine 0.2% twice daily for one minute (panel A is a control showing seven days rinsing with Delmopinol 0.2% twice daily 10 ml for one minute);
FIG. 2 panel B illustrates staining of the tongue when contacted over a seven day period with Chlorhexidine 0.2% twice daily for one minute (panel A is a control showing seven days rinsing with Delmopinol 0.2% twice daily 10 ml for one minute); and
A subject swilled their mouth twice daily with a 0.2% chlorhexidine mouthwash for seven days.
As a separate control, the subject swilled their mouth twice daily with a 0.2% delmopinol mouthwash for seven days.

The conditions of data set [2]: prolonged use, some subjects, noticed by dentists in some studies; cited from earlier work.
Data set [3] in a line: removal of chlorhexidine staining by a single one-minute brushing of the teeth. It counts as in vivo. To be noted: subject with staining after seven days of chlorhexidine, brushed once, toothbrush soaked in 0.2% mouthwash. The text has this:
FIG. 3 illustrates the removal of Chlorhexidine stains seen in FIG. 1(B) by brushing the teeth for one minute with a toothbrush that has been soaked in 0.2% delmopinol. The subject with chlorhexidine staining (after the seven day usage of chlorhexidine) brushed their teeth once, for one minute, using a toothbrush soaked in a 0.2% delmopinol mouthwash.

As to `[H]/N=C(\N/C(=N/[H])NCCCCCCNC(=N)NC(=N)Nc1ccc(Cl)cc1)Nc1ccc(Cl)cc1` [chlorhexidine, reference compound], in data set [1], the “staining of the teeth” value is on record as “characteristic staining of the teeth” and the “staining of the tongue” value is on record as “the tongue was also stained”.

Consider `CCCC(CCC)CCCC1COCCN1CCO` (stereo not drawn) [delmopinol, 3-(4-propyl-heptyl)-4-(2-hydroxyethyl)morpholine], for which, in data set [1], the “staining of the teeth” value is “No staining was observed” and the “staining of the tongue” value was “No staining was observed”. Further, the “staining of the teeth” value in data set [2] is “mild staining of the teeth”. The “removal of chlorhexidine staining of the teeth” value in data set [3] is recorded as “removed the staining of the teeth”.
